According to ChEMBL document CHEMBL2074008, “Structural determinants of P-glycoprotein-mediated transport of glucocorticoids” (Pharm Res, 2003):

target: ATP-dependent translocase ABCB1 (Homo sapiens, UniProt P08183); assay: TP_TRANSPORTER: transepithelial transport in MDR1-expressing LLC-PK1 cells; type: functional, cell-based; conditions: pig
Sequence (P08183 whole entry): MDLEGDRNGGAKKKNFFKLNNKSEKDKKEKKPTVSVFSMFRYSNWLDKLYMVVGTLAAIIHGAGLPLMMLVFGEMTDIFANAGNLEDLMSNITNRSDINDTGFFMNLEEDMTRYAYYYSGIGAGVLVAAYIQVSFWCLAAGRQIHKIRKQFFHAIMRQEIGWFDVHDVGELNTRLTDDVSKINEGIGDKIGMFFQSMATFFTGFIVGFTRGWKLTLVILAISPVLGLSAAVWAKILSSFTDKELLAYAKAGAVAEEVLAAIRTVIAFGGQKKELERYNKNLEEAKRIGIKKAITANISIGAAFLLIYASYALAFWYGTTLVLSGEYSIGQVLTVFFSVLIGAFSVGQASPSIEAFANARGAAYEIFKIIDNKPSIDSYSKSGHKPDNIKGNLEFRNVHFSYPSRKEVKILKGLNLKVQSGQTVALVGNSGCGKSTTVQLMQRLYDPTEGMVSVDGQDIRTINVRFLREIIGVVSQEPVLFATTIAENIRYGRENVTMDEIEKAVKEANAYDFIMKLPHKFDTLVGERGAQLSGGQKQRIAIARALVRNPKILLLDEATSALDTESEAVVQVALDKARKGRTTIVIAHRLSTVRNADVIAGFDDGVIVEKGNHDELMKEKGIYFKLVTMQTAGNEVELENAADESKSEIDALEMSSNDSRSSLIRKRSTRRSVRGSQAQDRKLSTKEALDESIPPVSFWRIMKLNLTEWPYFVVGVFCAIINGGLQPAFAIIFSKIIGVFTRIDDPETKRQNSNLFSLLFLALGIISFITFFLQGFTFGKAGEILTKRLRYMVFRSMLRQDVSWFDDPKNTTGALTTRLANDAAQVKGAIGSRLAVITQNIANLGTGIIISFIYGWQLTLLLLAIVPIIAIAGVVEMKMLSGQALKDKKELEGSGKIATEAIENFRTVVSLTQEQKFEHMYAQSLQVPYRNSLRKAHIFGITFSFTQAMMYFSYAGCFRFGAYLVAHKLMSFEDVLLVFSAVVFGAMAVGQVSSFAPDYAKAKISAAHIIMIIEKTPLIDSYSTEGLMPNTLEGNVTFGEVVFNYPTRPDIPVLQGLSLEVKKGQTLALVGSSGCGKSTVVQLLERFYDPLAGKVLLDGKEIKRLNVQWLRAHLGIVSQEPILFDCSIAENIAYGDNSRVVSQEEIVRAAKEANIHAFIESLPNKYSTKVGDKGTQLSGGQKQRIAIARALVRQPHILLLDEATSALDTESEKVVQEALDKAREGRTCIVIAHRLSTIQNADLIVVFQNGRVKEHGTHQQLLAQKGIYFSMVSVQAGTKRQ

Activity | SMILES
substrate [+] | C[C@H]1C[C@H]2[C@@H]3CCC4=CC(=O)C=C[C@]4(C)[C@@]3(F)[C@@H](O)C[C@]2(C)[C@@]1(O)C(=O)CO [BETAMETHASONE]
substrate [+] | C[C@]12CCC(=O)C=C1CC[C@@H]1[C@@H]2C(=O)C[C@@]2(C)[C@H]1CC[C@]2(O)C(=O)CO [CORTISONE]
substrate [+] | C[C@@H]1C[C@H]2[C@@H]3CCC4=CC(=O)C=C[C@]4(C)[C@@]3(F)[C@@H](O)C[C@]2(C)[C@@]1(O)C(=O)CO [DEXAMETHASONE]
substrate [+] | C[C@]12CCC(=O)C=C1CC[C@@H]1[C@@H]2[C@@H](O)C[C@@]2(C)[C@H]1CC[C@]2(O)C(=O)CO [HYDROCORTISONE]
substrate [+] | C[C@H]1C[C@@H]2[C@H]([C@@H](O)C[C@@]3(C)[C@H]2CC[C@]3(O)C(=O)CO)[C@@]2(C)C=CC(=O)C=C12 [METHYLPREDNISOLONE]
substrate [+] | C[C@]12C=CC(=O)C=C1CC[C@@H]1[C@@H]2[C@@H](O)C[C@@]2(C)[C@H]1CC[C@]2(O)C(=O)CO [PREDNISOLONE]
substrate [+] | C[C@]12C=CC(=O)C=C1CC[C@@H]1[C@@H]2C(=O)C[C@@]2(C)[C@H]1CC[C@]2(O)C(=O)CO [PREDNISONE]

SMILES | Activity
C[C@]12CCC(=O)C=C1[C@H](O)C[C@@H]1[C@@H]2[C@@H](O)C[C@@]2(C)[C@H]1CC[C@]2(O)C(=O)CO | substrate [+]
C[C@]12CCC(=O)C=C1[C@@H](O)C[C@@H]1[C@@H]2[C@@H](O)C[C@@]2(C)[C@H]1CC[C@]2(O)C(=O)CO | substrate [+]
